pEC50: −log10 of the molar value. Where two headings read alike, the source gives them in different places.
Molecular target: T1, human α7 nAChR stably expressed in a HEK cell line (with human RIC-3) (Homo sapiens, UniProt P36544)
T1 construct: PrecisION hnAChR α7/RIC-3
Experiment: Automated patch-clamp electrophysiology functional assay (Assay A), IonFlux HT, whole-cell population patch
Assay type: cell-based
Procedure, shortened: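 Whole-cell population patch clamp (IonFlux HT) used HEK cells stably co-expressing human α7 and RIC-3, held at −60 mV at room temperature. Compounds were applied alone (agonism) or with 40 μM acetylcholine (potentiation), three ascending concentrations per recording. Currents were quantified relative to a 40 μM acetylcholine reference response, giving EC50.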

[1] = automated patch-clamp electrophysiology functional assay (Assay A), potency class by EC50, read-out: α7 nAChR Potency
[2] = electrophysiology EC50, HEK cells expressing human α7/RIC-3, 40 μM acetylcholine, holding potential −60 mV, room temperature, read-out: α7 nAChR EC50

T1 sequence (P36544 23-502): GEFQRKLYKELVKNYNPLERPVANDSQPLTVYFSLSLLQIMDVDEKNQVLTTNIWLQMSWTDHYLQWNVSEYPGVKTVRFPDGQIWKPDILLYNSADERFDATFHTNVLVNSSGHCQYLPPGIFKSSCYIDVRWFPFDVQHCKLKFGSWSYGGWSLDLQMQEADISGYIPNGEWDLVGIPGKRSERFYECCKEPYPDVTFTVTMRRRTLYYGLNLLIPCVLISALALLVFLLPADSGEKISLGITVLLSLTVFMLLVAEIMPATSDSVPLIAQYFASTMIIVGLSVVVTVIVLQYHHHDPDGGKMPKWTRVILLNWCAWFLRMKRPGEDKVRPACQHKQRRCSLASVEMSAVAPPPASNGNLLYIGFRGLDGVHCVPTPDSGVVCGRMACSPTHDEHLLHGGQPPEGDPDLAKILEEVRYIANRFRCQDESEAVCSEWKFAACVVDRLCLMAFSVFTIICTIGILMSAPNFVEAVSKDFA

SMILES	pEC50 [1]	pEC50 [2]
CC1(C)[C@@H](c2ccc(S(N)(=O)=O)cc2)[C@@H]1c1noc(-c2cc(N3CCOC3=O)ccc2F)n1 [Example H7]	5.30 to 6.30	5.62
CC1(C)[C@@H](c2ccc(S(N)(=O)=O)cc2)[C@@H]1c1nnc(-c2cccc(C(F)(F)F)c2)o1 [Example G2]	5.30 to 6.30	
CC1(C)[C@@H](c2ccc(S(N)(=O)=O)cc2)[C@@H]1c1nnc(C2CCCC2)s1 [Example G14]	5.30 to 6.30	6.04
CC1(C)[C@H](c2ccc(S(N)(=O)=O)cc2)[C@H]1c1noc(-c2cccc(F)c2)n1 [Example L18]	6.30 to 7.00	6.66
CC1(C)[C@@H](c2ccc(S(N)(=O)=O)cc2)[C@@H]1c1noc(C2(c3cnccn3)CC2)n1 [Example I12]	5.30 to 6.30	
CC1(C)[C@@H](c2ccc(S(N)(=O)=O)cc2)[C@@H]1c1noc(-c2nc(-c3ccc(F)cc3)c[nH]2)n1 [Example I17]	5.30 to 6.30	
CC1(C)C(c2ccc(S(N)(=O)=O)c(F)c2)C1c1nc(-c2ccccc2)no1 (single isomer, unassigned; enantiomer a) [Example 32, 4-[trans-2,2-Dimethyl-3-(3-phenyl-1,2,4-oxadiazol-5-yl)cyclopropyl]-2-fluorobenzenesulfonamide, enantiomer A]	5.30 to 6.30	6.07
CC1(C)[C@H](c2ccc(S(N)(=O)=O)cc2)[C@H]1c1nc(-c2ccccc2F)co1 [Example J1]	5.30 to 6.30	5.92
NS(=O)(=O)c1ccc([C@@H]2C[C@H]2c2nc(-c3cccc(Br)c3)no2)cc1 [Example C10]	5.30 to 6.30	
CC1(C)[C@H](c2ccc(S(N)(=O)=O)cc2)[C@H]1c1nc(-c2ccccc2C(F)(F)F)no1 [Example A13]	5.30 to 6.30	
CC1(C)[C@@H](c2ccc(S(N)(=O)=O)cc2)[C@@H]1c1noc(-c2ccc(F)cc2Cl)n1 [Example H2]	5.30 to 6.30	6.29
CC1(C)[C@H](c2ccc(S(N)(=O)=O)cc2)[C@H]1c1ncc(C2CCCC2)s1 [Example J9]	5.30 to 6.30	
CC1(C)[C@@H](c2ccc(S(N)(=O)=O)cc2)[C@@H]1c1nc(-c2ccc(F)cc2F)co1 [Example K3]	6.30 to 7.00	6.42
NS(=O)(=O)c1ccc([C@@H]2C[C@H]2c2nc(-c3cccnc3C3CC3)no2)cc1 [Example D24]	6.30 to 7.00	6.64
CC1(C)[C@@H](c2ccc(S(N)(=O)=O)cc2)[C@@H]1c1nc(-c2cccnc2C(F)(F)F)no1 [Example D30]	5.30 to 6.30	5.92
NS(=O)(=O)c1ccc([C@@H]2C[C@H]2c2nc(-c3cncc(F)c3)no2)cc1 [Example D12]	5.30 to 6.30	6.10
Cc1cccc(-c2noc([C@@H]3C[C@H]3c3ccc(S(N)(=O)=O)cc3)n2)c1 [Example C18]	6.30 to 7.00	
CC1(C)[C@@H](c2ccc(S(N)(=O)=O)cc2)[C@@H]1c1noc(CCC2CC2)n1 [Example 2, 4-((1S,3S)-3-(5-(2-Cyclopropylethyl)-1,2,4-oxadiazol-3-yl)-2,2-dimethylcyclopropyl)benzenesulfonamide]	6.30 to 7.00	
CC1(C)[C@H](c2ccc(S(N)(=O)=O)cc2)[C@H]1c1nc(-c2cncc(C(F)(F)F)c2)no1 [Example B7]	5.30 to 6.30	5.55
Cc1ccccc1-c1noc([C@@H]2C[C@H]2c2ccc(S(N)(=O)=O)cc2)n1 [Example C17]	6.30 to 7.00	

SMILES	pEC50 [1]	pEC50 [2]
CC1(C)C(c2nc(-c3ccccc3)no2)C1c1ccc(S(N)(=O)=O)cc1F (single isomer, unassigned) [Example M7]	5.30 to 6.30	
CC(=O)N1CCC(c2noc([C@@H]3[C@@H](c4ccc(S(N)(=O)=O)cc4)C3(C)C)n2)CC1 [Example B16]	5.30 to 6.30	5.66
NS(=O)(=O)c1ccc([C@H]2C[C@@H]2c2cnc(-c3ccccc3)s2)cc1 [Example L22]	5.30 to 6.30	
CC1(C)[C@@H](c2ccc(S(N)(=O)=O)cc2)[C@@H]1c1cnc(-c2ccccc2)o1 [Example L1]	5.30 to 6.30	
CC1(C)[C@H](c2ccc(S(N)(=O)=O)cc2)[C@H]1c1nc(C2CC2)c(C2CC2)o1 [Example 31, 4-[(1R,3R)-3-(4,5-Dicyclopropyl-1,3-oxazol-2-yl)-2,2-dimethylcyclopropyl]benzenesulfonamide]	5.30 to 6.30	5.62
NS(=O)(=O)c1ccc([C@@H]2C[C@H]2c2nc(C3CCCC3)co2)cc1 [Example K18]	6.30 to 7.00	
NS(=O)(=O)c1ccc([C@@H]2C[C@H]2c2nc(-c3ccc(F)cc3C(F)(F)F)no2)cc1 [Example C7]	5.30 to 6.30	6.02
CC1(C)[C@H](c2ccc(S(N)(=O)=O)cc2)[C@H]1c1nnc(-c2ccccc2)s1 [Example F4]	6.30 to 7.00	6.38
CC1(C)[C@H](c2ccc(S(N)(=O)=O)cc2)[C@H]1c1noc(C2(C(F)(F)F)CC2)n1 [Example L19]	5.30 to 6.30	
CC1(C)[C@H](c2ccc(S(N)(=O)=O)cc2)[C@H]1c1nnc(-c2ccccc2)[nH]1 [Example F5]	5.30 to 6.30	6.00
NS(=O)(=O)c1ccc([C@@H]2[C@@H](c3nc(-c4cccc(F)c4)no3)C2(Cl)Cl)cc1 (relative stereo) [Example 36, 4-{trans-2,2-Dichloro-3-[3-(3-fluorophenyl)-1,2,4-oxadiazol-5-yl]cyclopropyl}benzenesulfonamide]	6.30 to 7.00	6.33
NS(=O)(=O)c1ccc([C@@H]2[C@@H](c3nsc(N4CCCCC4)n3)C2(F)F)cc1 [Example L12]	6.30 to 7.00	
CC1(C)[C@@H](c2ccc(S(N)(=O)=O)cc2)[C@@H]1c1noc(C2CCN(C3CC3)CC2)n1 [Example I9]	5.30 to 6.30	5.74
CC(C)c1cnc([C@H]2[C@H](c3ccc(S(N)(=O)=O)cc3)C2(C)C)s1 [Example 21, 4-{(1S,3S)-2,2-Dimethyl-3-[5-(propan-2-yl)-1,3-thiazol-2-yl]cyclopropyl}benzenesulfonamide]	6.30 to 7.00	6.41
CC1(C)C(c2ccc(OS(N)(=O)=O)cc2)C1c1nc(-c2ccccc2)no1 (stereo not drawn) [Example 30, 4-[trans-2,2-Dimethyl-3-(3-phenyl-1,2,4-oxadiazol-5-yl)cyclopropyl]phenyl sulfamate]	5.30 to 6.30	5.85
Cc1ncccc1-c1noc([C@@H]2C[C@H]2c2ccc(S(N)(=O)=O)cc2)n1 [Example D16]	5.30 to 6.30	5.89
NS(=O)(=O)c1ccc([C@@H]2C[C@H]2c2noc(C3CCCCC3)n2)cc1 [Example I34]	6.30 to 7.00	
NS(=O)(=O)c1ccc([C@@H]2C[C@H]2c2nsc(N3CCCCC3)n2)cc1 [Example 29, 4-{(1R,2R)-2-[5-(Piperidin-1-yl)-1,2,4-thiadiazol-3-yl]cyclopropyl}benzenesulfonamide]	6.30 to 7.00	6.85
CC1(C)[C@H](c2ccc(S(N)(=O)=O)cc2)[C@H]1c1nc(C2CCCO2)no1 (some centres unmarked) [Example B12]	4.30 to 5.30	
CC1(C)[C@@H](c2ccc(S(N)(=O)=O)cc2)[C@@H]1c1noc(-c2ccccc2)n1 [Example H1]	6.30 to 7.00	6.59

SMILES	pEC50 [1]	pEC50 [2]
CC1(C)[C@H](c2ccc(S(N)(=O)=O)cc2)[C@H]1c1noc(C2CCCCC2)n1 [Example L16]	5.30 to 6.30	
CC1(C)[C@@H](c2ccc(S(N)(=O)=O)cc2)[C@@H]1c1nc(C2CC2)no1 [Example D9]	6.30 to 7.00	
CC1(C)[C@@H](c2ccc(S(N)(=O)=O)cc2)[C@@H]1c1nc(CC(F)(F)F)no1 [Example D14]	5.30 to 6.30	
CC1(C)[C@@H](c2ccc(S(N)(=O)=O)cc2)[C@@H]1c1noc(-c2ccc(C#N)cc2)n1 [Example H12]	5.30 to 6.30	5.92
NS(=O)(=O)c1ccc([C@@H]2C[C@H]2c2nc(-c3cc(F)ccc3F)no2)cc1 [Example C16]	6.30 to 7.00	6.80
CC1(C)[C@H](c2ccc(S(N)(=O)=O)cc2)[C@H]1c1nc(C2CC3(CCC3)C2)no1 (some centres unmarked) [Example B15]	5.30 to 6.30	
CC1(C)[C@@H](c2ccc(S(N)(=O)=O)cc2)[C@@H]1c1csc(C2CCCC2)n1 [Example L15]	6.30 to 7.00	6.43
CC1(C)[C@H](c2ccc(S(N)(=O)=O)cc2)[C@H]1c1nnc(-c2c(F)cccc2C(F)(F)F)o1 [Example F3]	5.30 to 6.30	5.33
NS(=O)(=O)c1ccc([C@@H]2C[C@H]2c2nsc(C3CCCCC3)n2)cc1 [Example L11]	6.30 to 7.00	
CC1(C)[C@@H](c2ccc(S(N)(=O)=O)cc2)[C@@H]1c1nc(-c2cncc(F)c2)no1 [Example D6]	5.30 to 6.30	6.09
CC1(C)[C@@H](c2ccc(S(N)(=O)=O)cc2)[C@@H]1c1noc(-c2cccc(OC(F)(F)C(F)F)c2)n1 [Example H14]	6.30 to 7.00	
NS(=O)(=O)c1ccc([C@@H]2C[C@H]2c2nc(C3CCCCC3)no2)cc1 [Example D8]	6.30 to 7.00	6.72
CC1(C)[C@@H](c2ccc(S(N)(=O)=O)cc2)[C@@H]1c1nnc(C2CC2)s1 [Example G15]	5.30 to 6.30	
CC1(C)[C@@H](c2ccc(S(N)(=O)=O)cc2)[C@@H]1c1noc(CC2CCCO2)n1 (some centres unmarked) [Example I15]	5.30 to 6.30	
CC1(C)[C@@H](c2ccc(S(N)(=O)=O)cc2)[C@@H]1c1nnc(-c2cccnc2C2CC2)o1 [Example G12]	5.30 to 6.30	
NS(=O)(=O)c1ccc([C@@H]2C[C@H]2c2nc(-c3cccc(F)c3)cs2)cc1 [Example 14, 4-{(1R,2R)-2-[4-(3-Fluorophenyl)-1,3-thiazol-2-yl]cyclopropyl}benzenesulfonamide]	6.30 to 7.00	6.70
CC1(C)[C@@H](c2ccc(S(N)(=O)=O)cc2)[C@@H]1c1nc(-c2ccc(C(F)(F)F)nc2)no1 [Example D29]	5.30 to 6.30	
NS(=O)(=O)c1ccc([C@@H]2[C@@H](c3nc(C4CCCC4)no3)C2(F)F)cc1 [Example B19]	6.30 to 7.00	6.43

From patent US9840481B2, “Allosteric modulators of nicotinic acetylcholine receptors” (MERCK SHARP & DOHME CORP., priority 2016, dated 2017)
